Here are results for 21 molecules from US11505548B2, “Heterocyclic compounds and their use for treatment of helminthic infections and diseases” (Celgene Corporation, priority 2019, dated 2022).

Like-named read-outs stand apart in the source and are kept apart here. Bounds are passed on as bounds.

In test [1] the test system is L. sigmodontis adult worms. Description: Parasite motility assay, adult L. sigmodontis. The format is cell-based, Litomosoides sigmodontis. As to conditions: in vitro motility, active at compound concentrations below 1 μM.
The test system of test [2] is B. pahangi adult worms. Put plainly: Parasite motility assay, adult B. pahangi. As to conditions: in vitro motility, active at compound concentrations below 1 μM. It counts as cell-based, Brugia pahangi. The protocol:
Parasite Motility Assays. Adult and microfilariae B. malayi and B. pahangi parasites, harvested from infected jirds, were procured from the NIAID/NIH Filariasis Research Reagent Resource Center (FR3). […] (Athens, Ga.). Adult worms were plated in 24-well plates with 2 mL of Advanced RPMI 1640 medium (Invitrogen) supplemented with 25 mM HEPES, 2 mM L-Glutamine (Invitrogen), 100 U/mL Penicillin (Invitrogen), 100 µg/mL Streptomycin (Invitrogen), […] Amphotericin B solution (Invitrogen), and 5% heat inactivated fetal bovine serum and placed in a 37° C. humidified incubator with 5% CO2. After 24 h, adult worms were selected based upon motility as described below. After scoring for motility, 4-6 highly motile worms were selected for each treatment group and were transferred to new plates. Microfilariae were centrifuged at 5000×g for 5 min, and re-suspended in 2 ml of media. Microfilarial density was determined using a hemocytometer and were plated in a 96-well plate at 80 microfilariae/well with 200 μL of complete media. Treatment groups received compounds (0.1% DMSO) at 1 μM and 100 nM with 0.1% DMSO as a vehicle control. Cultures were incubated at 37° C. in a humidified incubator with 5% CO2. […] The motility of the worms and microfilariae were evaluated every 24 h and analyzed by a one sided unpaired Student's t-test using Microsoft Excel. […]

Test [3] relates to L. sigmodontis microfilariae. Description: Parasite motility assay, L. sigmodontis microfilariae. The format is cell-based, Litomosoides sigmodontis. As to conditions: in vitro motility, active at compound concentrations below 1 μM.
Test [4] relates to Onchocerca gutturosa Adult Male Worms. Description: Onchocerciasis in vitro screening model, worm motility score. It counts as cell-based. As to conditions: read-out: O. gutturosa activity level (IC50 or MED).
The mark [5] stands for this setting: in vitro, Onchocerca gutturosa adult male worms, class A/B/C.
The mark [6] stands for this setting: Onchocerca gutturosa, Table 1 O. gutturosa, levels A/B/C, motility or MTT readout not specified.

Broadly, the IC50 is the concentration needed to halve the response being measured. Consider “2-(3-(5-isoprop- oxypyridin-2- yl)-1,2,4- thiadiazol-5- ylamino)-N,N- dimethyl-5- (trifluoromethyl) nicotinamide [Compound 250]”, for which, in test [1], the “L. sigmodontis activity against adult filaria (level E)” value was “E (activity against adult filaria at compound concentrations below 1 μM (activity level E))”. Besides, the “B. pahangi activity against adult filaria (level E)” value in test [2] is on record as “E (activity against adult filaria at compound concentrations below 1 μM (activity level E))”. The “L. sigmodontis activity against microfilaria (level D)” value in test [3] is on record as “D (activity against microfilaria at compound concentrations below 1 μM (activity level D))”. For the same molecule, the IC50 in test [4] (setting [5]) is 0.5 to 5 µM.

On to `CC(C)c1cnc(Nc2nc(-c3ncccc3OC3CC3)ns2)cc1C(F)(F)F` [Compound 97, 3-(3-cycloprop-oxypyridin-2-yl)-N-(5-isopropyl-4-(trifluoromethyl)pyridin-2-yl)-1,2,4-thiadiazol-5-amine], for which the IC50 in test [4] (setting [6]) was under 0.2 µM.

Turning to `COc1ccc(-c2nnc(Nc3cc(OC(C)C)ccn3)[nH]2)nc1` [Compound 257, 4-isopropoxy-N-(5-(5-methoxy-pyridin-2-yl)-4H-1,2,4-triazol-3-yl)pyridin-2-amine], the half-inhibitory concentration (IC50) in test [4] (setting [5]) lay in the range of 0.5 to 5 µM.

Turning to `CC(C)COc1cnc(-c2nsc(Nc3ncccc3N(C)C)n2)cn1` [Compound 150, N2-(3-(5-isobutoxy-pyrazin-2-yl)-1,2,4-thiadiazol-5-yl)-N3,N3-dimethyl-pyridine-2,3-diamine], in test [4] (setting [6]), the IC50 was 0.5 to 5 µM.

Consider `Cc1cccnc1Nc1nc(-c2ccc(C(=O)N3CCOCC3)cn2)ns1` [Compound 58, (6-(5-(3-methyl-pyridin-2-ylamino)-1,2,4-thiadiazol-3-yl)pyridin-3-yl)(morpholino) methanone], for which the IC50 in test [4] (setting [6]) fell in the range of 0.2 to 0.5 µM.

Consider `FC(F)(F)c1cncc(Nc2nc(-c3ccccn3)ns2)c1` [Cmpd 3, 3-(pyridin-2-yl)-N-(5-(trifluoromethyl)pyridin-3-yl)-1,2,4-thiadiazol-5-amine], for which the IC50 in test [4] (setting [6]) was in the range of 0.5 to 5 µM.

Regarding `Cc1cccnc1Nc1nc(-c2ccc(OC(C)C)cn2)ns1` [Compound 19, 3-(5-isopropoxy-pyridin-2-yl)-N-(3-methyl-pyridin-2-yl)-1,2,4-thiadiazol-5-amine], in test [4] (setting [6]), the IC50 was under 0.2 µM.

`CC(C)Oc1cnc(-c2nsc(Nc3ncccc3N(C)C)n2)cc1C(F)(F)F` [Compound 156, N2-(3-(5-isopropoxy-4-(trifluoromethyl)pyridin-2-yl)-1,2,4-thiadiazol-5-yl)-N3,N3-dimethyl-pyridine-2,3-diamine]: in test [4] (setting [6]), the IC50 is under 0.2 µM.

Turning to `CC(C)Oc1cnc(-c2nsc(Nc3ncccc3C(=O)N3CCCC3)n2)cc1C(F)(F)F` [Compound 251, (2-(3-(5-isopropoxy-4-(trifluoromethyl)pyridin-2-yl)-1,2,4-thiadiazol-5-ylamino)pyridin-3-yl) (pyrrolidin-1-yl)methanone], the IC50 in test [4] (setting [5]) fell in the range of 0.5 to 5 µM.

For `Cc1cccnc1Nc1nnc(-c2cc(OC(C)C)ccn2)s1` [Compound 173, 5-(4-isopropoxy-pyridin-2-yl)-N-(3-methyl-pyridin-2-yl)-1,3,4-thia-diazol-2-amine], in test [4] (setting [6]), the 50% inhibitory concentration (IC50) lay in the range of 0.5 to 5 µM.

With `CC(C)Oc1ccc(-c2nsc(Nc3ncccc3N(C)C(=O)C(C)C)n2)nc1` [Compound 169, N-(2-(3-(5-isopropoxy-pyridin-2-yl)-1,2,4-thiadiazol-5-ylamino)pyridin-3-yl)-N-methyliso-butyramide], the concentration for half-maximal inhibition (IC50) in test [4] (setting [6]) was 0.2 to 0.5 µM.

For the molecule `Cc1cccnc1Nc1nc(-c2ccc(O[C@@H]3CCN(C4CC4)C[C@H]3F)cn2)ns1` [Compound 91, 3-(5-((3R,4R)-1-cyclopropyl-3-fluoro-piperidin-4-yloxy)pyridin-2-yl)-N-(3-methylpyridin-2-yl)-1,2,4-thiadiazol-5-amine], the IC50 in test [4] (setting [6]) was under 0.2 µM.

As for `CN(C)c1cccnc1Nc1nc(-c2ccc(OC(F)F)cn2)ns1` [Compound 120, N2-(3-(5-(difluoromethoxy)pyridin-2-yl)-1,2,4-thiadiazol-5-yl)-N3,N3-dimethyl-pyridine-2,3-diamine], the half-inhibitory concentration (IC50) in test [4] (setting [6]) fell in the range of 0.5 to 5 µM.

With `Cc1cccnc1Nc1nc(-c2ccc(OC(C)C)cn2)no1` [Compound 20, 3-(5-isopropoxy-pyridin-2-yl)-N-(3-methyl-pyridin-2-yl)-1,2,4-oxadiazol-5-amine], in test [4] (setting [6]), the IC50 is under 0.2 µM.

Take `CN1CCC(Oc2ccc(Nc3nc(-c4ccccn4)ns3)nc2)CC1` [Compound 11, N-(5-(1-methyl-piperidin-4-yloxy)pyridin-2-yl)-3-(pyridin-2-yl)-1,2,4-thiadiazol-5-amine]: the IC50 in test [4] (setting [6]) was 0.5 to 5 µM.

In the case of `CC(C)Oc1ccc(-c2nsc(Nc3ncccc3S(=O)(=O)N3CCC3)n2)nc1` [Compound 298, N-(3-(azetidin-1-ylsulfonyl)pyridin-2-yl)-3-(5-isopropoxypyridin-2-yl)-1,2,4-thiadiazol-5-amine], in test [4] (setting [5]), the IC50 lay within 0.2 to 0.5 µM.

For `Cc1cccnc1Nc1nc(-c2cc(C#N)c(OC(C)C)cn2)ns1` [Compound 200, 5-isopropoxy-2-(5-(3-methylpyridin-2-ylamino)-1,2,4-thiadiazol-3-yl)isonicotino-nitrile], the IC50 in test [4] (setting [5]) lay within 0.5 to 5 µM.

In the case of `Cc1ccnc(Nc2nnc(-c3ncccc3C)s2)c1` [Compound 244, 5-(3-methyl-pyridin-2-yl)-N-(4-methyl-pyridin-2-yl)-1,3,4-thiadiazol-2-amine], in test [4] (setting [5]), the IC50 lay in the range of 0.5 to 5 µM.

Regarding `Cc1cccnc1Nc1nc(-c2ccc(OC(C)C)cn2)n[nH]1` [Compound 69, N-(3-(5-isopropoxy-pyridin-2-yl)-1H-1,2,4-triazol-5-yl)-3-methylpyridin-2-amine], in test [4] (setting [6]), the half-inhibitory concentration (IC50) lay in the range of 0.2 to 0.5 µM.

On to `CC(C)Oc1ccnc(-c2nsc(Nc3ncccc3S(=O)(=O)N(C)C)n2)c1` [Compound 308, 2-(3-(4-isoprop-oxypyridin-2-yl)-1,2,4-thiadiazol-5-ylamino)-N,N-dimethyl-pyridine-3-sulfonamide], for which the 50% inhibitory concentration (IC50) in test [4] (setting [5]) was under 0.2 µM.

Consider `CN1CCC(Oc2ccc(-c3nsc(Nc4ncccc4F)n3)nc2)CC1` [Compound 30, N-(3-fluoro-pyridin-2-yl)-3-(5-(1-methyl-piperidin-4-yloxy)pyridin-2-yl)-1,2,4-thiadiazol-5-amine], for which the IC50 in test [4] (setting [6]) is under 0.2 µM.
